Data: patent publication US7449495B2, “Retinoid derivatives with antiangiogenic, antitumoral and proapoptotic activities” (Sigma-Tau Industrie Farmaceutiche Riunite S.p.A., priority 2001, dated 2008)

Columns and labels:
[1] = test system: Human ovarian carcinoma A2780/Dx (drug resistant); experiment: Cytotoxicity test (sulphorodamine B), A2780/Dx; assay type: cell-based; conditions: 24 h incubation, survival 48 h after removal
Excerpt: (§1) Different cell lines deriving from solid tumors were also used. • 1. Human prostate carcinoma PC3 and DU145. These cell lines were maintained in RPMI 1640 medium containing 10% FCS, 1% sodium pyruvate and 1% glutamine; • 2. Human colon adenocarcinoma LoVo. This cell line was maintained in HAM's F-12 medium, containing 10% FCS and 1% glutamine. • 3. Human ovarian carcinoma such as A2780 and A2780/Dx, sensitive and resistant to drugs, respectively (doxorubicin, taxol, etoposide, vincristine); IGROV-1 and IGROV-1/Pt, sensitive and resistant to platinum-based chemotherapy, respectively, were maintained in RPMI 1640 medium containing 10% FCS, 1% sodium pyruvate and 1% glutamine; • 4. Human melanoma MeWo and MeS 2.21, glioblastoma GBM, no small cell lung carcinomas A431, NCI—H460, osteosarcomas SAOS and U2OS were maintained in RPMI 1640 medium containing 10% FCS, 1% sodium pyruvate and 1% glutamine.
(§2) The cytotoxicity tests were carried out using NB4 or HL-60 cells in suspension (10000/well). The cells were seeded in a volume of 250 μl in 96 well plates and incubated for 24 hours at 37° C. […] The optical density was measured using a Multiskan spectrophotometer at 540 nm. […]
(§3) Cell survival was determined by incubation with ST1926 for 24 hours, 48 hours after the removal of the compound. […]

[2] = test system: chicken chorioallantoic membrane vessels, bFGF induced; experiment: Angiostatic activity in chicken chorioallantoic membrane (CAM) model; assay type: in vivo; conditions: bFGF 0.05 + compound 0.25 μg/embryo
Excerpt: The chicken chorioallantoic membrane is a very vascularised membrane in which the vessels make their appearance at the 4th day of development, develop an arteriovenal system by the 8th day of development, and actively proliferate until the 11th day.
The aim of the study was to follow vasal development in the CAM under basal conditions and in the presence of an inducer bFGF (basic Fibroblast Growth Factor) of vasoproliferation. This study used chicken embryonal eggs at the initial stage of their development. On the 3rd day of development an operation to open the shells was performed to make the vessels of the CAM visible. The treatment was administered on the 9th day of development by applying a fragment of sterile gelatine (GELFOAM Pharmacia-Upjohn) about 1 mm^3, to the CAM surface, onto which was administered the bFGF (50 ng/embryo) or the products in question, for 3 consecutive days.
The evaluation of the effect of the molecule on vasoproliferation was obtained by a comparison of the vessels at the time of zero treatment with these of later times (12th day).

[3] = test system: Human prostate carcinoma PC3; experiment: Cytotoxicity test (sulphorodamine B), PC3; assay type: cell-based; conditions: 24 h incubation, survival 48 h after removal, read-out: IC50
Excerpt: as §1, §2, §3

[4] = test system: human microvascular endothelial (HMVE) cells; conditions: after 96 h of treatment, cited from earlier work

O=C(O)/C=C/c1ccc(-c2ccc(O)c(C34CC5CC(CC(C5)C3)C4)c2)cc1 [ST1926, E-4-(3-(1-adamantyl)-4-hydroxyphenyl)cinnamic acid]
IC50 [1]: 200 nM
Δvessels, change vs bFGF alone [2]: (−53%)
12th day (72 hours), number of vessels per sponge ([2]; mean ± SE): 12 ± 2 vessels per sponge
Δvessels ([2]; mean ± SE): 9 ± 2 vessels per sponge
IC50 [3]: 210 nM
inhibition (%) at 0.5 μM ([4]; 0.5 μM, relative to vehicle alone control): 90%
IC50 ([4]; highest concentration evaluated 0.5 μM, read-out: IC50 (concentration inhibiting proliferation by 50%)): 100 nM
